Patent publication US12329158B2, “Large-scale methods of uniformly coating packaging surfaces with a volatile antimicrobial to preserve food freshness” (AGROFRESH INC., priority 2013, dated 2025)
Values after ≈ are worked out from the molar mass of the structure shown. Read-outs that look alike come from different tables or passages of the source.

Experiments:
Botrytis cinerea = experiment: In-clamshell Compound A applied by painting, spraying or sublimation; strawberries (Example 1); type: in vivo; conditions: 5 mg/clamshell
Protocol: An in vivo assay was used to evaluate the ability of Compound A to volatilize from a clamshell chamber and control pathogenic infection when applied by various techniques. Multiple empty 1-lb PET clamshells (ProducePackaging.com, #036QT) were placed inside triplicate air-tight 36 L chamber (Fisher Scientific, Catalogue #08-642-23C) fitted with a bulkhead septum port (Swagelok, SS-401-61, Solon, OH).
Compound A headspace was permitted to equilibrate overnight at 21° C.
Five milligrams of Compound A was dissolved in 1 ml of ethanol prior to being uniformly administered to the interior of the clamshell by painting or spraying, and then dried for 5 minutes. After coating the clamshells with Compound A using various application techniques (i.e., sublimation, spraying, or painting), eight ethanol-washed strawberries were placed in the clamshell with stem end facing downwards. Each strawberry fruit was wounded using a T15 screwdriver tip to a uniform depth of eight mm (8 mm). […] Uninoculated strawberries were removed from their commercial package, and directly transferred into treated clamshells without any washing or inoculation steps.
Treated clamshells lids were closed, and then placed at 1° C. for an initial time period of 5 days. Clamshells were then removed from low temperature, and held for a second time period of 6 days at room temperature where the point of inoculation on the strawberry fruits was assessed for indication of disease incidence reported as a percentage (%). Severity of disease incidence was also reported.

[1] = system: C. krusei (or I. orientalis); experiment: In vitro volatile assay, yeast infection species (Example 27); type: cell-based, Issatchenkia orientalis; conditions: Pichia kudriavzevii
Protocol: More specifically, growth inhibition of yeast infection fungal species C. albicans and C. krusei (or I. orientalis) by volatile treatment of Compound 10 was assessed via a volatile assay.
Volatile assay: 6-well (16.5 mL volume per well) microtiter plates are used in an in vitro inhibition assay for Compound 10 (i.e., Compound A). A 7.5-mL volume of half strength PDA is added to each well. After drying, a mycelial plug (5 mm diameter) is aseptically obtained from actively growing cultures of C. albicans and C. krusei (or I. orientalis) and placed at the center of the plate with the mycelial side in contact with the agar. A Whatman #1 filter disk (Cat. No. 1001-325) is placed, in duplicate, on the underside of a polyethylene PCR plate sealing film. […] The acetone/methanol is permitted to evaporate for 5 minutes. The headspace around the inoculum is then sealed inside the well by the film with the adhering disk containing the fungicide and incubated inverted for 5 days at 28° C.

Penicillium digitatum = experiment: Green mold on orange, contact assay (Example 25); type: in vivo; conditions: Contact (dip); rate not given; day 3 at 21 C after 5 days at 1 C
Protocol: A 250 mL solution of each concentration is used to dip two inoculated fruits, one minute per fruit, performed in triplicate per rate. The dipped fruits are then placed back into the clamshells and then into the SnapWare container and incubated at 1° C. for 5 days. […] Volatile application of Compound A results in excellent inhibition of browning and sporulation, whereas all other active ingredients result in no or little inhibition.

B. cinerea = experiment: In vitro contact assay, amended agar (Example 24); type: cell-based; conditions: Botrytis cinerea, 72 h; amended agar; 100% control; 3 days at 23 C; read-out: Contact MIC (mg/L) B. cinerea
Protocol: (§1) Contact assay: 6-well (16.5 mL volume per well) microtiter plates are used for an in vitro inhibition assay. […] A 7.5-mL volume of the amended media is added to each well of the microtiter plate. […] The plates are sealed with a clear film and incubated for 3 days at 23° C. After incubation, plates are evaluate for percent growth relative to acetone only control.

P. expansum = experiment: In vitro contact assay, amended agar (Example 24); type: cell-based; conditions: Penicillium expansum, 72 h; amended agar; 100% control; 3 days at 23 C; read-out: Contact MIC (mg/L) P. expansum
Protocol: as §1

Penicillium expansum = experiment: Blue mold on apple and pear, volatile assay (Example 25); conditions: 50 mg/L, day 3 at 21 C after 5 days at 1 C
Protocol: Two apples, pears or oranges are placed in a clamshell, and three fresh wounds are made near the equatorial region of each fruit. Each fruit wound is then inoculated with 20 μL of 1×10^6 spores per mL of Penicillium expansum or digitatum suspension, respectively. The inoculum is allowed to dry for two hours prior to treatment application as a volatile or contact.
Volatile Assay: Clamshells are then placed at the bottom of a 2.55-L SnapWare airtight container (Model #109842). […] The solutions are pipetted into Whatman filter disks mounted to the inside lid of the container. The chambers are then incubated at 1° C. for 5 days, removed to 21° C., and evaluated on day 3 by determining the diameter (mm) of rot development (browning) or sporulation.

Compound: OB1OCc2cc(F)ccc21 [Compound A, 5-fluoro-1,3-dihydro-1-hydroxy-2,1-benzoxaborole]
- Gray Mold Incidence (%) (Botrytis cinerea; Inoculated Fruit, Paint, Day 0): 0.0%
- Gray Mold Incidence (%) (Botrytis cinerea; Inoculated Fruit, Paint, Day 1): 0.0%
- Gray Mold Incidence (%) (Botrytis cinerea; Inoculated Fruit, Paint, Day 2): 0.0%
- Gray Mold Incidence (%) (Botrytis cinerea; Inoculated Fruit, Paint, Day 3): 0.0%
- Gray Mold Incidence (%) (Botrytis cinerea; Inoculated Fruit, Paint, Day 4): 0.0%
- Gray Mold Incidence (%) (Botrytis cinerea; Inoculated Fruit, Paint, Day 5): 0.0%
- Gray Mold Incidence (%) (Botrytis cinerea; Inoculated Fruit, Paint, Day 6): 0.0%
- Gray Mold Incidence (%) (Botrytis cinerea; Inoculated Fruit, Spray, Day 0): 0.0%
- Gray Mold Incidence (%) (Botrytis cinerea; Inoculated Fruit, Spray, Day 1): 0.0%
- Gray Mold Incidence (%) (Botrytis cinerea; Inoculated Fruit, Spray, Day 2): 0.0%
- Gray Mold Incidence (%) (Botrytis cinerea; Inoculated Fruit, Spray, Day 3): 0.0%
- Gray Mold Incidence (%) (Botrytis cinerea; Inoculated Fruit, Spray, Day 4): 0.0%
- Gray Mold Incidence (%) (Botrytis cinerea; Inoculated Fruit, Spray, Day 5): 0.0%
- Gray Mold Incidence (%) (Botrytis cinerea; Inoculated Fruit, Spray, Day 6): 0.0%
- Gray Mold Incidence (%) (Botrytis cinerea; Inoculated Fruit, Sublimation, Day 0): 0.0%
- Gray Mold Incidence (%) (Botrytis cinerea; Inoculated Fruit, Sublimation, Day 1): 0.0%
- Gray Mold Incidence (%) (Botrytis cinerea; Inoculated Fruit, Sublimation, Day 2): 0.0%
- Gray Mold Incidence (%) (Botrytis cinerea; Inoculated Fruit, Sublimation, Day 3): 0.0%
- Gray Mold Incidence (%) (Botrytis cinerea; Inoculated Fruit, Sublimation, Day 4): 0.0%
- Gray Mold Incidence (%) (Botrytis cinerea; Inoculated Fruit, Sublimation, Day 5): 0.9%
- Gray Mold Incidence (%) (Botrytis cinerea; Inoculated Fruit, Sublimation, Day 6): 0.9%
- Gray Mold Incidence (%) (Botrytis cinerea; Uninoculated Fruit, Paint, Day 0): 0.0%
- Gray Mold Incidence (%) (Botrytis cinerea; Uninoculated Fruit, Paint, Day 1): 0.3%
- Gray Mold Incidence (%) (Botrytis cinerea; Uninoculated Fruit, Paint, Day 2): 3.9%
- Gray Mold Incidence (%) (Botrytis cinerea; Uninoculated Fruit, Paint, Day 3): 5.1%
- Gray Mold Incidence (%) (Botrytis cinerea; Uninoculated Fruit, Paint, Day 4): 7.4%
- Gray Mold Incidence (%) (Botrytis cinerea; Uninoculated Fruit, Paint, Day 5): 17.0%
- Gray Mold Incidence (%) (Botrytis cinerea; Uninoculated Fruit, Paint, Day 6): 21.7%
- Gray Mold Incidence (%) (Botrytis cinerea; Uninoculated Fruit, Spray, Day 0): 0.0%
- Gray Mold Incidence (%) (Botrytis cinerea; Uninoculated Fruit, Spray, Day 1): 0.6%
- Gray Mold Incidence (%) (Botrytis cinerea; Uninoculated Fruit, Spray, Day 2): 2.1%
- Gray Mold Incidence (%) (Botrytis cinerea; Uninoculated Fruit, Spray, Day 3): 4.8%
- Gray Mold Incidence (%) (Botrytis cinerea; Uninoculated Fruit, Spray, Day 4): 6.0%
- Gray Mold Incidence (%) (Botrytis cinerea; Uninoculated Fruit, Spray, Day 5): 17.9%
- Gray Mold Incidence (%) (Botrytis cinerea; Uninoculated Fruit, Spray, Day 6): 19.9%
- Gray Mold Incidence (%) (Botrytis cinerea; Uninoculated Fruit, Sublimation, Day 0): 0.0%
- Gray Mold Incidence (%) (Botrytis cinerea; Uninoculated Fruit, Sublimation, Day 1): 0.3%
- Gray Mold Incidence (%) (Botrytis cinerea; Uninoculated Fruit, Sublimation, Day 2): 1.5%
- Gray Mold Incidence (%) (Botrytis cinerea; Uninoculated Fruit, Sublimation, Day 3): 3.3%
- Gray Mold Incidence (%) (Botrytis cinerea; Uninoculated Fruit, Sublimation, Day 4): 5.7%
- Gray Mold Incidence (%) (Botrytis cinerea; Uninoculated Fruit, Sublimation, Day 5): 16.7%
- Gray Mold Incidence (%) (Botrytis cinerea; Uninoculated Fruit, Sublimation, Day 6): 20.2%
- MIC ([1]; 120 h, read-out: minimum inhibitory concentration (MIC) for C. krusei): 35.7 µg/mL (≈ 235 µM)
- inhibition at 0.017 µg/mL ([1]; volatile, 0.017 mg/L, read-out: Growth Inhibition (%) C. krusei/I. orientalis): -1.3%
- inhibition at 0.035 µg/mL ([1]; volatile, 0.035 mg/L, read-out: Growth Inhibition (%) C. krusei/I. orientalis): -1.4%
- inhibition at 0.07 µg/mL ([1]; volatile, 0.07 mg/L, read-out: Growth Inhibition (%) C. krusei/I. orientalis): 0.5%
- inhibition at 0.1 µg/mL ([1]; volatile, 0.1 mg/L, read-out: Growth Inhibition (%) C. krusei/I. orientalis): 0.4%
- inhibition at 0.3 µg/mL ([1]; volatile, 0.3 mg/L, read-out: Growth Inhibition (%) C. krusei/I. orientalis): 1.2%
- inhibition at 0.6 µg/mL ([1]; volatile, 0.6 mg/L, read-out: Growth Inhibition (%) C. krusei/I. orientalis): -5.2%
- inhibition at […] ([1]; volatile, 1.1 mg/L, read-out: Growth Inhibition (%) C. krusei/I. orientalis): -0.2%
- inhibition at […] ([1]; volatile, 2.2 mg/L, read-out: Growth Inhibition (%) C. krusei/I. orientalis): 18.2%
- inhibition at […] ([1]; volatile, 4.5 mg/L, read-out: Growth Inhibition (%) C. krusei/I. orientalis): 22%
- inhibition at […] ([1]; volatile, 8.9 mg/L, read-out: Growth Inhibition (%) C. krusei/I. orientalis): 30.5%
- Orange Sporulation (mm) (Penicillium digitatum): >50 mm
- MIC (B. cinerea): < 0.08 mg/L
- MIC (P. expansum): 0.4 mg/L (≈ 2.63 µM)
- Apple Browning (mm) (Penicillium expansum): 0.4 mm
- Apple Sporulation (mm) (Penicillium expansum): 0.0 mm
- Pear Browning (mm) (Penicillium expansum): 5.7 mm
- Pear Sporulation (mm) (Penicillium expansum): 0.0 mm
